# Results: US8247211B2, “Glycopeptide antibiotics” (American Cyanamid Company, priority 2001, dated 2012)
# What was measured:
# Test in all cases: In vitro antibacterial evaluation: minimum inhibitory concentration (MIC), broth dilution method
# Format in all cases: cell-based
# Enterococcus sp. = system: Enterococcus sp.
# In short: (§1)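 Values are minimum inhibitory concentrations, meaning the smallest antibiotic concentration that stops growth of the organism. They come from broth dilution in Muller-Hinton II […] per NCCLS guidance (M7-A2), using 5×10^5 CFU/mL and concentrations from 64 to 0.06 μg/mL.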
# Escherichia coli = system: Escherichia coli
# In short: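 MIC read as lowest drug level preventing visible growth. Organisms at 5×10^5 CFU/mL were exposed to a 64-0.06 μg/mL dilution series in Muller-Hinton II […] following NCCLS broth dilution standard M7-A2.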
# Staphylococcus sp. = system: Staphylococcus sp.
# In short: as §1
# Streptococcus sp. = system: Streptococcus sp.
# In short: as §1
# [1] = broth dilution, 5×10^5 CFU/mL, 18 hours at 35° C.
# [2] = broth dilution, inoculum 5×10^5 CFU/mL, 18 hours at 35° C.
compound,measurement,setting,value
"COc1cc(C2OCC3OC(OC4C(CO)OC(Oc5ccc(CC6NC(=O)C(C(C)c7ccccc7)NC(=O)CNC(=O)C(CO)NC(=O)C(C(O)C7CNC(=N)N7C7OC(CO)C(O)C(O)C7O)NC(=O)C(C(O)C7CNC(=N)N7)NC6=O)cc5)C(O)C4O)C(O)C(O)C3O2)ccc1[N+](=O)[O-] (stereo not drawn) [Example 153, Cyclo[glycyl-β-methylphenylalanyl-O-[4-O-[4,6-O-(3-methoxy-4-nitrobenzylidene)hexopyranosyl]hexopyranosyl]tyrosyl-3-(2-iminoimidazolidin-4-yl)seryl-3-(3-hexopyranosyl-2-iminoimidazolidin-4-yl)serylseryl]]",MIC Enterococcus faecalis (ATCC 29212),Enterococcus sp.; strain ATCC 29212,8 µg/mL
same,MIC Enterococcus faecalis (GC 2242),Enterococcus sp.; strain GC 2242,4 µg/mL
same,MIC Enterococcus faecium (GC 2243),Enterococcus sp.; strain GC 2243,4 µg/mL
same,MIC Enterococcus faecalis (GC 2691),Enterococcus sp.; strain GC 2691,8 µg/mL
same,MIC Enterococcus faecalis (GC 3059),Enterococcus sp.; strain GC 3059,8 µg/mL
same,MIC Enterococcus faecalis (GC 4552),Enterococcus sp.; strain GC 4552,8 µg/mL
same,MIC Enterococcus faecalis (GC 4553),Enterococcus sp.; strain GC 4553,8 µg/mL
same,MIC Enterococcus faecalis (GC 4554),Enterococcus sp.; strain GC 4554,8 µg/mL
same,MIC Enterococcus faecium (GC 4556),Enterococcus sp.; strain GC 4556,4 µg/mL
same,MIC Enterococcus faecium (GC 4557),Enterococcus sp.; strain GC 4557,2 µg/mL
same,MIC Enterococcus avium (GC 4558),Enterococcus sp.; strain GC 4558,8 µg/mL
same,MIC Enterococcus faecalis (GC 6189),Enterococcus sp.; strain GC 6189,4 µg/mL
same,MIC Escherichia coli (ATCC 25922),Escherichia coli; strain ATCC 25922,64 µg/mL
same,MIC Escherichia coli (GC 4559),Escherichia coli; strain GC 4559,64 µg/mL
same,MIC Coagulase Negative Staphylococcus (GC 4547),Staphylococcus sp.; [1],1 µg/mL
same,MIC Coagulase Negative Staphylococcus (GC 4548),Staphylococcus sp.; [1],0.5 µg/mL
same,MIC Coagulase Negative Staphylococcus (GC 4549),Staphylococcus sp.; [1],0.5 µg/mL
same,MIC Coagulase Negative Staphylococcus (GC 4551),Staphylococcus sp.; [1],2 µg/mL
same,MIC Coagulase Negative Staphylococcus (GC 6257),Staphylococcus sp.; [1],0.5 µg/mL
same,MIC Staphylococcus aureus (ATCC 29213),Staphylococcus sp.; [1],2 µg/mL
same,MIC Staphylococcus aureus (GC 1131),Staphylococcus sp.; [1],2 µg/mL
same,MIC Staphylococcus aureus (GC 3051),Staphylococcus sp.; [1],2 µg/mL
same,MIC Staphylococcus aureus (GC 3053),Staphylococcus sp.; [1],4 µg/mL
same,MIC Staphylococcus aureus (GC 4541),Staphylococcus sp.; [1],2 µg/mL
same,MIC Staphylococcus aureus (GC 4542),Staphylococcus sp.; [1],2 µg/mL
same,MIC Staphylococcus aureus (GC 4544),Staphylococcus sp.; [1],2 µg/mL
same,MIC Staphylococcus aureus (GC 4545),Staphylococcus sp.; [1],2 µg/mL
same,MIC Staphylococcus aureus-SMITH (GC 4543),Staphylococcus sp.; [1],1 µg/mL
same,MIC Staphylococcus haemolyticus (GC 4546),Staphylococcus sp.; [1],1 µg/mL
same,MIC Staphylococcus aureus (ATCC 29213),"Staphylococcus sp.; strain ATCC 29213, broth dilution, 18 hours at 35° C.",2 µg/mL
same,MIC Staphylococcus aureus (GC 1131),"Staphylococcus sp.; strain GC 1131, broth dilution, 18 hours at 35° C.",2 µg/mL
same,MIC Staphylococcus aureus (GC 3051),"Staphylococcus sp.; strain GC 3051, broth dilution, 18 hours at 35° C.",2 µg/mL
same,MIC Staphylococcus aureus (GC 3053),"Staphylococcus sp.; strain GC 3053, broth dilution, 18 hours at 35° C.",4 µg/mL
same,MIC Staphylococcus aureus (GC 4541),"Staphylococcus sp.; strain GC 4541, broth dilution, 18 hours at 35° C.",2 µg/mL
same,MIC Staphylococcus aureus (GC 4542),"Staphylococcus sp.; strain GC 4542, broth dilution, 18 hours at 35° C.",2 µg/mL
same,MIC Staphylococcus aureus-SMITH (GC 4543),"Staphylococcus sp.; strain GC 4543, broth dilution, 18 hours at 35° C.",1 µg/mL
same,MIC Staphylococcus aureus (GC 4544),"Staphylococcus sp.; strain GC 4544, broth dilution, 18 hours at 35° C.",2 µg/mL
same,MIC Staphylococcus aureus (GC 4545),"Staphylococcus sp.; strain GC 4545, broth dilution, 18 hours at 35° C.",2 µg/mL
same,MIC Staphylococcus haemolyticus (GC 4546),"Staphylococcus sp.; strain GC 4546, broth dilution, 18 hours at 35° C.",1 µg/mL
same,MIC Coagulase Negative Staphylococcus (GC 4547),"Staphylococcus sp.; strain GC 4547, broth dilution, 18 hours at 35° C.",1 µg/mL
same,MIC Coagulase Negative Staphylococcus (GC 4548),"Staphylococcus sp.; strain GC 4548, broth dilution, 18 hours at 35° C.",0.5 µg/mL
same,MIC Coagulase Negative Staphylococcus (GC 4549),"Staphylococcus sp.; strain GC 4549, broth dilution, 18 hours at 35° C.",0.5 µg/mL
same,MIC Coagulase Negative Staphylococcus (GC 4551),"Staphylococcus sp.; strain GC 4551, broth dilution, 18 hours at 35° C.",2 µg/mL
same,MIC Coagulase Negative Staphylococcus (GC 6257),"Staphylococcus sp.; strain GC 6257, broth dilution, 18 hours at 35° C.",0.5 µg/mL
same,MIC Streptococcus pneumoniae (ATCC 6301),Streptococcus sp.; strain ATCC 6301,<0.06 µg/mL
same,MIC Streptococcus pneumoniae (GC 1894),Streptococcus sp.; strain GC 1894,<0.06 µg/mL
same,MIC Streptococcus pyogenes (GC 4563),Streptococcus sp.; strain GC 4563,0.25 µg/mL
same,MIC Streptococcus agalactiae (GC 4564),Streptococcus sp.; strain GC 4564,0.5 µg/mL
same,MIC Streptococcus pneumoniae (GC 4565),Streptococcus sp.; strain GC 4565,<0.06 µg/mL
N=C1NCC(C(O)C2NC(=O)C(CC3CCC(OC4OC(CO)C(OC5OC6COC7(OC6C(O)C5O)C5CC6CC(C5)CC7C6)C(O)C4O)CC3)NC(=O)C(CC3CCCCC3)NC(=O)CNC(=O)C(CO)NC(=O)C(C(O)C3CNC(=N)N3C3OC(CO)C(O)C(O)C3O)NC2=O)N1 (stereo not shown) [Example 223],MIC Enterococcus avium (GC 4558),"Enterococcus sp.; Enterococcus avium (GC 4558), 18 hours at 35° C.",64 µg/mL
same,MIC Enterococcus faecalis (ATCC 29212),"Enterococcus sp.; Enterococcus faecalis (ATCC 29212), 18 hours at 35° C.",>64 µg/mL
same,MIC Enterococcus faecalis (GC 2242),"Enterococcus sp.; Enterococcus faecalis (GC 2242), 18 hours at 35° C.",>64 µg/mL
same,MIC Enterococcus faecalis (GC 2691),"Enterococcus sp.; Enterococcus faecalis (GC 2691), 18 hours at 35° C.",>64 µg/mL
same,MIC Enterococcus faecalis (GC 3059),"Enterococcus sp.; Enterococcus faecalis (GC 3059), 18 hours at 35° C.",>64 µg/mL
same,MIC Enterococcus faecalis (GC 4552),"Enterococcus sp.; Enterococcus faecalis (GC 4552), 18 hours at 35° C.",>64 µg/mL
same,MIC Enterococcus faecalis (GC 4553),"Enterococcus sp.; Enterococcus faecalis (GC 4553), 18 hours at 35° C.",64 µg/mL
same,MIC Enterococcus faecalis (GC 4554),"Enterococcus sp.; Enterococcus faecalis (GC 4554), 18 hours at 35° C.",>64 µg/mL
same,MIC Enterococcus faecalis (GC 6189),"Enterococcus sp.; Enterococcus faecalis (GC 6189), 18 hours at 35° C.",>64 µg/mL
same,MIC Enterococcus faecium (GC 2243),"Enterococcus sp.; Enterococcus faecium (GC 2243), 18 hours at 35° C.",>64 µg/mL
same,MIC Enterococcus faecium (GC 4556),"Enterococcus sp.; Enterococcus faecium (GC 4556), 18 hours at 35° C.",>64 µg/mL
same,MIC Enterococcus faecium (GC 4557),"Enterococcus sp.; Enterococcus faecium (GC 4557), 18 hours at 35° C.",64 µg/mL
same,MIC Enterococcus avium (GC 4558),Enterococcus sp.; [2],64 µg/mL
same,MIC Enterococcus faecalis (ATCC 29212),Enterococcus sp.; [2],>64 µg/mL
same,MIC Enterococcus faecalis (GC 2242),Enterococcus sp.; [2],>64 µg/mL
same,MIC Enterococcus faecalis (GC 2691),Enterococcus sp.; [2],>64 µg/mL
same,MIC Enterococcus faecalis (GC 3059),Enterococcus sp.; [2],>64 µg/mL
same,MIC Enterococcus faecalis (GC 4552),Enterococcus sp.; [2],>64 µg/mL
same,MIC Enterococcus faecalis (GC 4553),Enterococcus sp.; [2],64 µg/mL
same,MIC Enterococcus faecalis (GC 4554),Enterococcus sp.; [2],>64 µg/mL
same,MIC Enterococcus faecalis (GC 6189),Enterococcus sp.; [2],>64 µg/mL
same,MIC Enterococcus faecium (GC 2243),Enterococcus sp.; [2],>64 µg/mL
same,MIC Enterococcus faecium (GC 4556),Enterococcus sp.; [2],>64 µg/mL
same,MIC Enterococcus faecium (GC 4557),Enterococcus sp.; [2],64 µg/mL
same,MIC Escherichia coli (ATCC 25922),"Escherichia coli; Escherichia coli (ATCC 25922), 18 hours at 35° C.",>64 µg/mL
same,MIC Escherichia coli (GC 4559),"Escherichia coli; Escherichia coli (GC 4559), 18 hours at 35° C.",>64 µg/mL
same,MIC Escherichia coli (GC 4560),"Escherichia coli; Escherichia coli (GC 4560), 18 hours at 35° C.",32 µg/mL
same,MIC Staphylococcus aureus (ATCC 29213),Staphylococcus sp.; strain ATCC 29213,>64 µg/mL
same,MIC Staphylococcus aureus (GC 1131),Staphylococcus sp.; strain GC 1131,>64 µg/mL
same,MIC Staphylococcus aureus (GC 3051),Staphylococcus sp.; strain GC 3051,64 µg/mL
same,MIC Staphylococcus aureus (GC 3053),Staphylococcus sp.; strain GC 3053,>64 µg/mL
same,MIC Staphylococcus aureus (GC 4541),Staphylococcus sp.; strain GC 4541,64 µg/mL
same,MIC Staphylococcus aureus (GC 4542),Staphylococcus sp.; strain GC 4542,64 µg/mL
same,MIC Staphylococcus aureus-SMITH (GC 4543),Staphylococcus sp.; strain GC 4543,64 µg/mL
same,MIC Staphylococcus aureus (GC 4544),Staphylococcus sp.; strain GC 4544,64 µg/mL
same,MIC Staphylococcus aureus (GC 4545),Staphylococcus sp.; strain GC 4545,64 µg/mL
same,MIC Staphylococcus haemolyticus (GC 4546),Staphylococcus sp.; strain GC 4546,64 µg/mL
same,MIC Coagulase Negative Staphylococcus (GC 4547),Staphylococcus sp.; strain GC 4547,64 µg/mL
same,MIC Coagulase Negative Staphylococcus (GC 4548),Staphylococcus sp.; strain GC 4548,64 µg/mL
same,MIC Coagulase Negative Staphylococcus (GC 4549),Staphylococcus sp.; strain GC 4549,64 µg/mL
same,MIC Coagulase Negative Staphylococcus (GC 4551),Staphylococcus sp.; strain GC 4551,64 µg/mL
same,MIC Streptococcus agalactiae (GC 4564),"Streptococcus sp.; Streptococcus agalactiae (GC 4564), 18 hours at 35° C.",>64 µg/mL
same,MIC Streptococcus pneumoniae (ATCC 6301),"Streptococcus sp.; Streptococcus pneumoniae (ATCC 6301), 18 hours at 35° C.",64 µg/mL
same,MIC Streptococcus pneumoniae (GC 1894),"Streptococcus sp.; Streptococcus pneumoniae (GC 1894), 18 hours at 35° C.",32 µg/mL
same,MIC Streptococcus pneumoniae (GC 4565),"Streptococcus sp.; Streptococcus pneumoniae (GC 4565), 18 hours at 35° C.",>64 µg/mL
same,MIC Streptococcus pyogenes (GC 4563),"Streptococcus sp.; Streptococcus pyogenes (GC 4563), 18 hours at 35° C.",64 µg/mL
same,MIC Streptococcus agalactiae (GC 4564),Streptococcus sp.; [2],>64 µg/mL
same,MIC Streptococcus pneumoniae (ATCC 6301),Streptococcus sp.; [2],64 µg/mL
same,MIC Streptococcus pneumoniae (GC 1894),Streptococcus sp.; [2],32 µg/mL
same,MIC Streptococcus pneumoniae (GC 4565),Streptococcus sp.; [2],>64 µg/mL
same,MIC Streptococcus pyogenes (GC 4563),Streptococcus sp.; [2],64 µg/mL
